According to the NIST ThermoML archive (doi:10.1016/j.jct.2012.01.013):
± gives the expanded uncertainty stated by the source.

Details: 101.33 kPa, Liquid; for viscosity: Falling or rolling sphere viscometry; for mass density: Vibrating tube method

Structure (SMILES)	viscosity (293.15 K) [mPa·s]	mass density (293.15 K) [kg/m3]	viscosity (298.15 K) [mPa·s]	mass density (298.15 K) [kg/m3]	viscosity (303.15 K) [mPa·s]	mass density (303.15 K) [kg/m3]	viscosity (308.15 K) [mPa·s]	mass density (308.15 K) [kg/m3]	viscosity (313.15 K) [mPa·s]	mass density (313.15 K) [kg/m3]
CO [methanol]	0.588 ± 0.06	791.22 ± 0.15	0.551 ± 0.06	786.52 ± 0.15	0.517 ± 0.06	781.81 ± 0.15	0.486 ± 0.06	777.06 ± 0.15	0.46 ± 0.06	772.27 ± 0.15
CC(=O)[O-].Cn1cc[nH+]c1 [1-methylimidazolium acetate]	8.196 ± 0.094	1079.75 ± 0.29	6.926 ± 0.085	1075.33 ± 0.29	5.913 ± 0.079	1070.89 ± 0.29	5.069 ± 0.075	1066.45 ± 0.28	4.395 ± 0.071	1062 ± 0.28
O [water]	1.002 ± 0.06		0.891 ± 0.06		0.798 ± 0.06		0.718 ± 0.06		0.652 ± 0.06	

Continued, values first:

viscosity (293.15 K) [mPa·s]	mass density (293.15 K) [kg/m3]	viscosity (298.15 K) [mPa·s]	mass density (298.15 K) [kg/m3]	viscosity (303.15 K) [mPa·s]	mass density (303.15 K) [kg/m3]	viscosity (308.15 K) [mPa·s]	mass density (308.15 K) [kg/m3]	viscosity (313.15 K) [mPa·s]	mass density (313.15 K) [kg/m3]	Structure (SMILES)
2.941 ± 0.064	809.77 ± 0.14	2.573 ± 0.063	805.98 ± 0.14	2.264 ± 0.062	802.08 ± 0.15	2.002 ± 0.062	798.19 ± 0.15	1.788 ± 0.061	794.36 ± 0.15	CCCCO [butan-1-ol]
	789.48 ± 0.15		785.41 ± 0.15		780.65 ± 0.15		776.31 ± 0.15		772.08 ± 0.15	CCO [ethanol]
2.206 ± 0.062	803.58 ± 0.15	1.976 ± 0.062	799.61 ± 0.15	1.737 ± 0.061	795.6 ± 0.15	1.548 ± 0.061	791.51 ± 0.15	1.383 ± 0.061	787.39 ± 0.15	CCCO [propan-1-ol]
